Data taken from ChEMBL document CHEMBL2062425, “Synthesis and in vitro evaluation of α-synuclein ligands” (Bioorg Med Chem, 2012).

Target: Alpha-synuclein (Homo sapiens, UniProt P37840)
Experiment: biochemical

c1ccc2c(c1)Nc1ccccc1S2 [PHENOTHIAZINE]
IC50: 26 µM
Ki: > 0.5 µM
